In patent publication US12121518B2, “PARP-1 and methods of use thereof” (The Board of Supervisors of Louisiana State University and …, priority 2017, dated 2024):
Read-outs that look alike come from different tables or passages of the source.

Key:
KOPT-K1 cells = assay: KOPT-K1 cell viability (Trypan exclusion assay); assay type: cell-based; details: ultra-low doses, 2.5 days
Procedure: (§1) Cell viability was assessed 2.5 days after treatment by Trypan exclusion assay. Statistics are not included.
as §1
The ultimate goal of this therapy is maximal inhibition of PARP to achieve “synthetic lethality” taking advantage of the inability of BRCA-deficient cancer cells to repair DNA. […] This was tested in three different leukemia cell lines.

CD3+ T cells = assay: Proliferation of CD3/CD28-stimulated T cells in the absence of MDSCs; details: 72 h, no MDSCs
[1] = system: bone marrow-derived MDSCs; details: co-culture without drug
MDSCs and T cells = assay: FACS of tumor-infiltrating and spleen immune cells in the MC-38 model; assay type: in vivo, mouse
Text: Tumors from the different experimental groups were either processed to generate single-cell suspensions or fixed with formalin. Single cell suspensions were stained with a combination of antibodies to CD45, CD11b, Gr1, Ly6C, and Ly6G. CD11b^+ cell population was gated from the live CD45^+ population. (A) Representative FACS dot plot of the experimental groups. (B) Absolute numbers and percentages of CD11b^+Gr1^+ cell populations in tumors of the different groups. (C) Absolute numbers and percentages of CD11b^+Ly6C^+ and CD11b^+Ly6G^+ populations in tumors of the different groups. (D) Absolute numbers and percentages of CD45^+CD3^+ and CD3^+CD8^+ cell populations in tumors of the different groups. […] (F) Percentages of CD45^+CD3^+ and CD3^+CD8^+ cell populations in spleens of the different groups. […] T cell proliferation was assessed by FACS. p≤0.05; **, p≤0.01; ***, p≤0.001.
Flow cytometric characterization of tumor infiltrating immune cells using fluorescence-activated cell sorting (FACS) analysis—Following digestion, tumor homogenates were filtered through a […] cell strainer to obtain a single cell suspension. Cell suspensions were then subjected to red blood cell lysis using ACK buffer for 5 minutes before resuspending in complete media. Cells were treated with anti-CD16/CD32 (BD; 2.4G2) for Fc blocking prior to staining with fluorescently-labeled mouse antibodies specific for CD45 (30-F11), CD3e (500A2) (both from eBioscience, San Diego, CA), Ly6C (AL-21), Ly6G (1A8), Gr1 (RB6-8C5), CD11b (M1/70), CD8 (53-6.7), and PD-1 (PA5-J43) (all from BD Biosciences, San Jose, CA). Single cells were gated by first using forward- and side-scatter doublet discrimination. Immune cells were discriminated from this doublet-excluded population using CD45. Myeloid cells were identified using a CD11b^+gate and MDSC subtypes identified by Gr1 selection and then plotted Ly6G/Ly6C. CD3^+ T-cells were gated from CD45^+ cells. CD4^+ and C8^+ T-cells were identified from CD3^+ gate. The detailed gating strategy is described in FIG. 45.

ARG-1, iNOS, COX2 = assay: Immunoblot of ARG-1, iNOS, COX2 and related factors in bone marrow-derived MDSCs; assay type: cell-based, mouse
Text: (I) Positive control for PARP-1 trapping.
Cell fractionation, protein extraction and immunoblot analysis—Tumor tissues or cells were harvested and homogenized in RIPA lysis buffer (Santa Cruz Biotechnology) containing a cocktail of protease and phosphatase inhibitors on ice. Nuclear fractions were isolated as described (35) and the remaining chromatin pellets were washed then suspended in an isotonic buffer followed by sonication. […] Protein expression signals developed by ECL (Pierce, ThermoFisher Scientific) were determined by a G:Box Gel Image Analysis System (Syngene, Cambridge, UK) equipped with the GeneSys image capture software.

O=C(c1cc(Cc2n[nH]c(=O)c3ccccc23)ccc1F)N1CCN(C(=O)C2CC2)CC1 [olaparib]
steroid resistance (viability with dexamethasone) (KOPT-K1 cells): reverse steroid resistance
proliferation of T cells (CD3+ T cells; high concentration 5 μM): significant effects on T-cell proliferation
proliferation of T cells (CD3+ T cells; low concentration 4 nM): no effect on proliferation of T cells
proliferation of T cells (CD3+ T cells; moderate concentration 0.1 μM): significant effects on T-cell proliferation
suppressive activity of MDSCs on T-cell proliferation ([1]; 4 nM): significantly reduced
suppressive activity of MDSCs on T-cell proliferation ([1]; high concentration 5 μM): blocked the function of MDSCs completely
suppressive activity of MDSCs on T-cell proliferation ([1]; moderate concentration 0.1 μM): blocked the function of MDSCs completely
CD3+ T cells in tumors (mostly CD8+) (MDSCs and T cells; low dose 0.2 mg/kg): increased
percentages and numbers of CD11b+/Gr1+ MDSCs in tumors (MDSCs and T cells; low dose 0.2 mg/kg): did not significantly affect
numbers and percentages of M-MDSCs in tumors (MDSCs and T cells; moderate dose 5 mg/kg): significantly increased
overall CD3+ T cells in spleens (with concomitant decrease in CD8+) (MDSCs and T cells; moderate dose 5 mg/kg): substantial decrease
increase in ARG-1, iNOS and COX2 during MDSC differentiation (ARG-1, iNOS, COX2; 4 nM, single treatment 24 h after plating): sufficient to prevent the increase in ARG-1, iNOS, and COX2
ARG-1 and iNOS in MDSCs stimulated by co-culture with MC-38 cells (ARG-1, iNOS, COX2; low and high concentrations (4 nM, 1 μM)): inhibitory effects
overall levels of STAT3 (and phosphorylated forms) (ARG-1, iNOS, COX2; low concentration 4 nM): increased the overall levels of STAT3
